Values quoted from earlier work as cited in patent publication US20050182029A1, “Metformin salts of lipophilic acids” (Sonus Pharmaceuticals, Inc., priority 2002, published 2005).

Key:
[1] = healthy human subjects

maximum metformin plasma levels (Cmax) (controlled clinical trials, even at maximum doses): ≤ 4000 ng/mL
steady-state plasma concentration (usual metformin doses and dosing schedules, reached within 24 to 48 hours): less than 1 ug/mL
colonic absorption [1]: poor colonic absorption
SMILES: CN(C)C(=N)N=C(N)N [metformin]
